Species: Rattus norvegicus
Assay: DrugMatrix - Regimen: Daily Repeat
Assay type: toxicity, organism-based, Sprague-Dawley
Parameters: regimen Daily Repeat, gender Male, age 6-8 weeks
Conditions: in vivo, po, route oral GAVAGE, vehicle .5 % CMC; for ABSOLUTE BASOPHIL / ABSOLUTE EOSINOPHIL / ABSOLUTE LYMPHOCYTE / ABSOLUTE MONOCYTE / ABSOLUTE SEGMENTED NEUTROPHIL / BASOPHIL / EOSINOPHIL / ERYTHROCYTE COUNT / HEMATOCRIT / HEMOGLOBIN / LEUKOCYTE COUNT / LYMPHOCYTE / MEAN CORPUSCULAR HEMOGLOBIN / MEAN CORPUSCULAR HEMOGLOBIN CONCENTRATION / MEAN CORPUSCULAR VOLUME / MONOCYTE / NEUTROPHIL / NUCLEATED RED BLOOD CELLS / PLATELET COUNT: tissue Blood; for ALANINE AMINOTRANSFERASE / ALBUMIN / ALKALINE PHOSPHATASE / ASPARTATE AMINOTRANSFERASE / BLOOD UREA NITROGEN / CARBON DIOXIDE / CHLORIDE / CHOLESTEROL / CREATINE PHOSPHOKINASE / CREATININE / GLUCOSE / LACTATE DEHYDROGENASE / LIPASE / PHOSPHORUS / POTASSIUM / SODIUM / TOTAL BILIRUBIN / TOTAL PROTEIN / URIC ACID: tissue Plasma
[1] = 0 mg/kg, 72 h, dose level Control, time 3 day
[2] = 0 mg/kg, 120 h, dose level Control, time 5 day
[3] = 250 mg/kg, 72 h, dose level High, time 3 day

C#C[C@]1(O)CC[C@H]2[C@@H]3CCc4cc(OC)ccc4[C@H]3CC[C@@]21C [MESTRANOL]
ABSOLUTE BASOPHIL [1]: 0 CELLS/uL | ABSOLUTE EOSINOPHIL [1]: 0 CELLS/uL | ABSOLUTE LYMPHOCYTE [1]: 12269.67 CELLS/uL | ABSOLUTE MONOCYTE [1]: 160.33 CELLS/uL | ABSOLUTE SEGMENTED NEUTROPHIL [1]: 970 CELLS/uL | BASOPHIL [1]: 0% | EOSINOPHIL [1]: 0% | ERYTHROCYTE COUNT [1]: 5.76 x10E6/uL | HEMATOCRIT [1]: 36.57% | HEMOGLOBIN [1]: 14.22 G/DL | LEUKOCYTE COUNT [1]: 13.4 x10E3/uL | LYMPHOCYTE [1]: 91.67% | MEAN CORPUSCULAR HEMOGLOBIN [1]: 24.67 pg | MEAN CORPUSCULAR HEMOGLOBIN CONCENTRATION [1]: 38.85 G/DL | MEAN CORPUSCULAR VOLUME [1]: 63.52 fL | MONOCYTE [1]: 1.17% | NEUTROPHIL [1]: 7.17% | NUCLEATED RED BLOOD CELLS [1]: 0.33 /100WBC | PLATELET COUNT [1]: 1250.83 x10E3/uL | ALANINE AMINOTRANSFERASE [1]: 49.17 u/L | ALBUMIN [1]: 4.33 G/DL | ALKALINE PHOSPHATASE [1]: 378.5 u/L | ASPARTATE AMINOTRANSFERASE [1]: 82.17 u/L | BLOOD UREA NITROGEN [1]: 15 mg/dL | CARBON DIOXIDE [1]: 34.33 mmol/L | CHLORIDE [1]: 99.17 MEQ/L | CHOLESTEROL [1]: 71.17 mg/dL | CREATINE PHOSPHOKINASE [1]: 258.67 u/L | CREATININE [1]: 0.18 mg/dL | GLUCOSE [1]: 142.67 mg/dL | LACTATE DEHYDROGENASE [1]: 154.33 u/L | LIPASE [1]: 9 u/L | PHOSPHORUS [1]: 11.67 mg/dL | POTASSIUM [1]: 7.13 MEQ/L | SODIUM [1]: 142.22 MEQ/L | TOTAL BILIRUBIN [1]: 0.18 mg/dL | TOTAL PROTEIN [1]: 5.77 G/DL | URIC ACID [1]: 1.55 mg/dL | ABSOLUTE BASOPHIL [2]: 0 CELLS/uL | ABSOLUTE EOSINOPHIL [2]: 23.33 CELLS/uL | ABSOLUTE LYMPHOCYTE [2]: 14943.67 CELLS/uL | ABSOLUTE MONOCYTE [2]: 32 CELLS/uL | ABSOLUTE SEGMENTED NEUTROPHIL [2]: 1084.33 CELLS/uL | BASOPHIL [2]: 0% | EOSINOPHIL [2]: 0.17% | ERYTHROCYTE COUNT [2]: 5.71 x10E6/uL | HEMATOCRIT [2]: 35.28% | HEMOGLOBIN [2]: 14.27 G/DL | LEUKOCYTE COUNT [2]: 16.08 x10E3/uL | LYMPHOCYTE [2]: 93% | MEAN CORPUSCULAR HEMOGLOBIN [2]: 25.02 pg | MEAN CORPUSCULAR HEMOGLOBIN CONCENTRATION [2]: 40.43 G/DL | MEAN CORPUSCULAR VOLUME [2]: 61.82 fL | MONOCYTE [2]: 0.17% | NEUTROPHIL [2]: 6.67% | NUCLEATED RED BLOOD CELLS [2]: 0.33 /100WBC | PLATELET COUNT [2]: 1274 x10E3/uL | ALANINE AMINOTRANSFERASE [2]: 54.17 u/L | ALBUMIN [2]: 4.22 G/DL | ALKALINE PHOSPHATASE [2]: 373.17 u/L | ASPARTATE AMINOTRANSFERASE [2]: 81.83 u/L | BLOOD UREA NITROGEN [2]: 16.67 mg/dL | CARBON DIOXIDE [2]: 30.33 mmol/L | CHLORIDE [2]: 99 MEQ/L | CHOLESTEROL [2]: 71 mg/dL | CREATINE PHOSPHOKINASE [2]: 273.5 u/L | CREATININE [2]: 0.22 mg/dL | GLUCOSE [2]: 141.83 mg/dL | LACTATE DEHYDROGENASE [2]: 153.67 u/L | LIPASE [2]: 10.33 u/L | PHOSPHORUS [2]: 11.38 mg/dL | POTASSIUM [2]: 7.08 MEQ/L | SODIUM [2]: 142.75 MEQ/L | TOTAL BILIRUBIN [2]: 0.18 mg/dL | TOTAL PROTEIN [2]: 6.1 G/DL | URIC ACID [2]: 1.67 mg/dL | ABSOLUTE BASOPHIL [3]: 0 CELLS/uL | ABSOLUTE EOSINOPHIL [3]: 55.33 CELLS/uL | ABSOLUTE LYMPHOCYTE [3]: 13434.33 CELLS/uL | ABSOLUTE MONOCYTE [3]: 105 CELLS/uL | ABSOLUTE SEGMENTED NEUTROPHIL [3]: 1338.67 CELLS/uL | BASOPHIL [3]: 0% | EOSINOPHIL [3]: 0.33% | ERYTHROCYTE COUNT [3]: 5.62 x10E6/uL | HEMATOCRIT [3]: 34.97% | HEMOGLOBIN [3]: 13.77 G/DL | LEUKOCYTE COUNT [3]: 14.93 x10E3/uL | LYMPHOCYTE [3]: 89.67% | MEAN CORPUSCULAR HEMOGLOBIN [3]: 24.5 pg | MEAN CORPUSCULAR HEMOGLOBIN CONCENTRATION [3]: 39.37 G/DL | MEAN CORPUSCULAR VOLUME [3]: 62.23 fL | MONOCYTE [3]: 0.67% | NEUTROPHIL [3]: 9.33% | NUCLEATED RED BLOOD CELLS [3]: 0 /100WBC | PLATELET COUNT [3]: 1230 x10E3/uL | ALANINE AMINOTRANSFERASE [3]: 46.67 u/L | ALBUMIN [3]: 4.03 G/DL | ALKALINE PHOSPHATASE [3]: 693.33 u/L | ASPARTATE AMINOTRANSFERASE [3]: 67.67 u/L | BLOOD UREA NITROGEN [3]: 10.33 mg/dL | CARBON DIOXIDE [3]: 32 mmol/L | CHLORIDE [3]: 102.67 MEQ/L | CHOLESTEROL [3]: 11.33 mg/dL | CREATINE PHOSPHOKINASE [3]: 168.67 u/L | CREATININE [3]: 0.16 mg/dL | GLUCOSE [3]: 157 mg/dL | LACTATE DEHYDROGENASE [3]: 250.33 u/L | LIPASE [3]: 7.33 u/L | PHOSPHORUS [3]: 11.57 mg/dL | POTASSIUM [3]: 6.36 MEQ/L | SODIUM [3]: 145.73 MEQ/L | TOTAL BILIRUBIN [3]: 0.23 mg/dL | TOTAL PROTEIN [3]: 5.73 G/DL

From ChEMBL document CHEMBL3885881, “DrugMatrix”
